From patent US10131652B2, “Pyrimidinyloxy benzene derivatives as herbicides” (E. I. DU PONT DE NEMOURS AND COMPANY, priority 2014, dated 2018)

How the values were obtained:
Format in all cases: in vivo
[1] = test system: giant foxtail (Setaria faberii); assay: Test D pre-/postemergence plant response; settings: Postemergence; for Plant response rating, Foxtail, Giant: scale 0 to 100, 0 no effect, 100 complete control
Method in brief: (§1)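 Test chemicals were formulated in a non-phytotoxic solvent mixture containing surfactant and applied either preemergence to seeds in loam–sand soil or postemergence to plants 2 to 18 cm tall (1- to 4-leaf stage). Response was rated visually against controls after 13 to 15 days, from 0 (none) to 100 (complete control).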

[2] = test system: galium (catchweed bedstraw, Galium aparine); assay: Test D pre-/postemergence plant response; settings: Postemergence; for Plant response rating, Galium: scale 0 to 100, 0 no effect, 100 complete control
Method in brief: as §1

[3] = test system: waterhemp (common waterhemp, Amaranthus rudis); assay: Test D pre-/postemergence plant response; settings: Postemergence
Method in brief: as §1

[4] = test system: corn (Zea mays); assay: Test D pre-/postemergence plant response; settings: Postemergence; for Plant response rating, Corn: scale 0 to 100, 0 no effect, 100 complete control
Method in brief: as §1

[5] = test system: morningglory (Ipomoea coccinea); assay: Test D pre-/postemergence plant response; settings: Postemergence
Method in brief: as §1

[6] = test system: blackgrass (Alopecurus myosuroides); assay: Test D pre-/postemergence plant response; settings: Postemergence; for Plant response rating, Blackgrass: scale 0 to 100, 0 no effect, 100 complete control
Method in brief: as §1

[7] = test system: Italian ryegrass (Lolium multiflorum); assay: Test D pre-/postemergence plant response; settings: Postemergence
Method in brief: as §1

[8] = test system: pigweed (Amaranthus retroflexus); assay: Test D pre-/postemergence plant response; settings: Postemergence
Method in brief: as §1

[9] = test system: ragweed (common ragweed, Ambrosia elatior); assay: Test D pre-/postemergence plant response; settings: Postemergence
Method in brief: as §1

[10] = test system: lambsquarters (Chenopodium album); assay: Test D pre-/postemergence plant response; settings: Postemergence
Method in brief: as §1

[11] = test system: barnyardgrass (Echinochloa crus-galli); assay: Test D pre-/postemergence plant response; settings: Postemergence; for Plant response rating, Barnyardgrass: scale 0 to 100, 0 no effect, 100 complete control
Method in brief: as §1

[12] = test system: giant foxtail (Setaria faberii); assay: Test B pre-/postemergence plant response; settings: 1000 g ai/ha, 0 to 100 scale (0 no effect, 100 complete control)
Method in brief: (§2)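 Visual injury scores on a 0–100 scale (100 = complete control) relative to untreated plants, taken about 10 days post-treatment in greenhouse. Treatments were a directed preemergence soil spray and a postemergence spray at one- to two-leaf stage, using surfactant-containing solvent formulation.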

[13] = test system: corn (Zea mays); assay: Test B pre-/postemergence plant response; settings: Postemergence, 1000 g ai/ha; 0 to 100 scale (0 no effect, 100 complete control)
Method in brief: as §2

[14] = test system: wheat (Triticum aestivum); assay: Test B pre-/postemergence plant response; settings: Postemergence, 1000 g ai/ha; 0 to 100 scale (0 no effect, 100 complete control)
Method in brief: as §2

[15] = test system: pigweed (Amaranthus retroflexus); assay: Test B pre-/postemergence plant response; settings: 1000 g ai/ha, 0 to 100 scale (0 no effect, 100 complete control)
Method in brief: as §2

[16] = test system: barnyardgrass (Echinochloa crus-galli); assay: Test B pre-/postemergence plant response; settings: 1000 g ai/ha, 0 to 100 scale (0 no effect, 100 complete control)
Method in brief: as §2

[17] = 31 g ai/ha, scale 0 to 100 (0 no effect, 100 complete control)
[18] = 62 g ai/ha, scale 0 to 100, 0 no effect, 100 complete control
[19] = 125 g ai/ha, scale 0 to 100, 0 no effect, 100 complete control

FCc1cc(-c2c(Br)cccc2Oc2ncc(Cl)cn2)no1 [Compound 191]
70: Galium plant response rating [2, 17] | Waterhemp plant response rating [3, 18] | Lambsquarters plant response rating [10, 17] | Lambsquarters plant response rating [10, 18]
65: Plant response rating, Waterhemp [3, 19] | Plant response rating (scale 0 to 100), Morningglory ([5]; 16 g ai/ha) | Morningglory plant response rating [5, 17] | Plant response rating, Ragweed [9, 19]
5: Plant response rating (scale 0 to 100), Foxtail, Giant ([1]; 16 g ai/ha) | Foxtail, Giant plant response rating [1, 17] | Plant response rating, Foxtail, Giant ([1]; 62 g ai/ha) | Plant response rating, Foxtail, Giant ([1]; 125 g ai/ha) | Plant response rating (scale 0 to 100), Corn ([4]; 16 g ai/ha) | Corn plant response rating [4, 17] | Plant response rating, Blackgrass ([6]; 125 g ai/ha) | Plant response rating, Ryegrass, Italian [7, 19] | Plant response rating (scale 0 to 100), Barnyardgrass ([11]; 16 g ai/ha) | Barnyardgrass plant response rating [11, 17] | Plant response rating, Barnyardgrass ([11]; 62 g ai/ha)
10: Plant response rating, Corn ([4]; 62 g ai/ha) | Plant response rating, Corn ([4]; 125 g ai/ha) | Plant response rating, Barnyardgrass ([11]; 125 g ai/ha)
40: Plant response rating (scale 0 to 100), Galium ([2]; 16 g ai/ha) | Ragweed plant response rating [9, 17]
60: Waterhemp plant response rating [3, 17] | Morningglory plant response rating [5, 18] | Plant response rating, Pigweed [8, 19] | Ragweed plant response rating [9, 18] | Plant response rating, Corn [13]
30: Pigweed plant response rating [8, 17] | Pigweed plant response rating [8, 18] | Plant response rating (scale 0 to 100), Ragweed ([9]; 16 g ai/ha) | Plant response rating, Wheat [14]
50: Plant response rating (scale 0 to 100), Lambsquarters ([10]; 16 g ai/ha)
0: Plant response rating (scale 0 to 100), Blackgrass ([6]; 16 g ai/ha) | Blackgrass plant response rating [6, 17] | Plant response rating, Blackgrass ([6]; 62 g ai/ha) | Plant response rating (scale 0 to 100), Ryegrass, Italian ([7]; 16 g ai/ha) | Ryegrass, Italian plant response rating [7, 17] | Ryegrass, Italian plant response rating [7, 18]
35: Plant response rating (scale 0 to 100), Pigweed ([8]; 16 g ai/ha)
85: Plant response rating, Galium ([2]; 62 g ai/ha) | Plant response rating, Galium ([2]; 125 g ai/ha) | Plant response rating, Morningglory [5, 19] | Plant response rating, Lambsquarters [10, 19]
25: Plant response rating (scale 0 to 100), Waterhemp ([3]; 16 g ai/ha)
100: Plant response rating, Foxtail, Giant ([12]; Postemergence) | Plant response rating, Foxtail, Giant ([12]; Preemergence) | Plant response rating, Pigweed ([15]; Postemergence) | Plant response rating, Pigweed ([15]; Preemergence) | Plant response rating, Barnyardgrass ([16]; Postemergence) | Plant response rating, Barnyardgrass ([16]; Preemergence)
